According to US9493455B2, “Azaindole derivatives as inhibitors of protein kinases” (ORIBASE PHARMA, priority 2012, dated 2016):

How the values were obtained:
BaF3 WT = assay: In vitro cell proliferation assay (MTT); type: cell-based; conditions: Mus musculus, BaF3, 72 h
Summary of the method: (§1)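 MTT read-out of proliferation after 72 hr compound exposure; 5×10^3 cells/well, duplicate wells, dose range 10 nM–3 μM.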

H1975 = assay: In vitro cell proliferation assay (MTT); type: cell-based; conditions: Homo sapiens, NCI-H1975, 72 h
Summary of the method: as §1

A549 = assay: In vitro cell proliferation assay (MTT); type: cell-based; conditions: Homo sapiens, A549, 72 h
Summary of the method: as §1

HUVEC = assay: In vitro cell proliferation assay (MTT); type: cell-based; conditions: Homo sapiens, 72 h
Procedure: Cancer cell lines (5×10^3 cells per well) or HUVEC (1×10^4 cells per well) or HRMEC (1×10^4 cells per well) were distributed in 96-well plates and incubating in duplicate with escalating concentrations (10 nM to 3 μM) of compounds for 72 hr. Cell proliferation was measured using MTT (3 [4,5-dimethylthiazol-2-yl]-2,5-diphenyltetrazolium bromide).

HuCCT1 = assay: In vitro cell proliferation assay (MTT); type: cell-based; conditions: Homo sapiens, HuCCT-1, 72 h
Summary of the method: as §1

BxPC-3 = assay: In vitro cell proliferation assay (MTT); type: cell-based; conditions: Homo sapiens, BXPC-3, 72 h
Summary of the method: as §1

HeLa = assay: In vitro cell proliferation assay (MTT); type: cell-based; conditions: Homo sapiens, 72 h
Summary of the method: as §1

HepG2 = assay: In vitro cell proliferation assay (MTT); type: cell-based; conditions: Homo sapiens, HepG2, 72 h
Summary of the method: as §1

HuH6 Clone 5 = assay: In vitro cell proliferation assay (MTT); type: cell-based; conditions: HUH-6-clone5, 72 h
Summary of the method: as §1

MDA-MB-231 = assay: In vitro cell proliferation assay (MTT); type: cell-based; conditions: Homo sapiens, MDA-MB-231, 72 h
Summary of the method: as §1

HuH7 = assay: In vitro cell proliferation assay (MTT); type: cell-based; conditions: Homo sapiens, Huh-7, 72 h
Summary of the method: as §1

Caki-2 = assay: In vitro cell proliferation assay (MTT); type: cell-based; conditions: Homo sapiens, CAKI-2, 72 h
Summary of the method: as §1

BaF3 T315I = assay: In vitro cell proliferation assay (MTT); type: cell-based; conditions: Mus musculus, BaF3, 72 h
Summary of the method: as §1

BaF3 G250E = assay: In vitro cell proliferation assay (MTT); type: cell-based; conditions: Mus musculus, BaF3, 72 h
Summary of the method: as §1

BaF3 G250A = assay: In vitro cell proliferation assay (MTT); type: cell-based; conditions: Mus musculus, BaF3, 72 h
Summary of the method: as §1

HRMEC = assay: In vitro cell proliferation assay (MTT); type: cell-based; conditions: 72 h
Summary of the method: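 Growth is assessed with the tetrazolium dye MTT following a 72 hr incubation with compound spanning 10 nM up to 3 μM, each dose tested twice on 5×10^3 plated cells per well.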

HT29 = assay: In vitro cell proliferation assay (MTT); type: cell-based; conditions: Homo sapiens, HT-29, 72 h
Summary of the method: as §1

BaF3 E255K + M351T = assay: In vitro cell proliferation assay (MTT); type: cell-based; conditions: Mus musculus, BaF3, 72 h
Summary of the method: as §1

PC-3 = assay: In vitro cell proliferation assay (MTT); type: cell-based; conditions: Homo sapiens, PC-3, 72 h
Summary of the method: as §1

CSK = target: T1, CSK (Homo sapiens, UniProt P41240); assay: In vitro kinase assay (Z′-LYTE); type: biochemical; conditions: read-out: percent inhibition of the kinase compared to the control
T1 construct: purchased Invitrogen
T1 sequence (P41240 whole entry): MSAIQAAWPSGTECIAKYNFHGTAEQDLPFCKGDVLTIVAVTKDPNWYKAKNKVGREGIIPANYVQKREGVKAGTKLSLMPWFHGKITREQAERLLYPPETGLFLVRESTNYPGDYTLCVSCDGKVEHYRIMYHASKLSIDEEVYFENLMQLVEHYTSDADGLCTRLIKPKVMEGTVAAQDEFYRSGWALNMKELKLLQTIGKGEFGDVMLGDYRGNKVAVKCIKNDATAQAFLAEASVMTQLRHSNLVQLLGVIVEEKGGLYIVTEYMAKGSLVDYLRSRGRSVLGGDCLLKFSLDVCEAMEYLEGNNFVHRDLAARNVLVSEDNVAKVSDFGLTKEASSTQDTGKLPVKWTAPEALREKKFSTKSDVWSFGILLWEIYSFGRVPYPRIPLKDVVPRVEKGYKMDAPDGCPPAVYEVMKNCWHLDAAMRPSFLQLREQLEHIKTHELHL
Summary of the method: (§2)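 Peptide/kinase mix combined with ATP (apparent Km) in 50 mM HEPES pH 7.5, 10 mM MgCl2, 1 mM EGTA, 0.01% BRIJ-35; compound present at 100 nM, except 10 μM for ABL T315I; DMSO 1% final. Protease development, then FRET emission ratio.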

SRC = target: T2, SRC (Homo sapiens, UniProt P12931); assay: In vitro kinase assay (Z′-LYTE); type: biochemical; conditions: read-out: % of inhibition of the kinase compared to the control
T2 construct: purchased Invitrogen
T2 sequence (P12931 whole entry): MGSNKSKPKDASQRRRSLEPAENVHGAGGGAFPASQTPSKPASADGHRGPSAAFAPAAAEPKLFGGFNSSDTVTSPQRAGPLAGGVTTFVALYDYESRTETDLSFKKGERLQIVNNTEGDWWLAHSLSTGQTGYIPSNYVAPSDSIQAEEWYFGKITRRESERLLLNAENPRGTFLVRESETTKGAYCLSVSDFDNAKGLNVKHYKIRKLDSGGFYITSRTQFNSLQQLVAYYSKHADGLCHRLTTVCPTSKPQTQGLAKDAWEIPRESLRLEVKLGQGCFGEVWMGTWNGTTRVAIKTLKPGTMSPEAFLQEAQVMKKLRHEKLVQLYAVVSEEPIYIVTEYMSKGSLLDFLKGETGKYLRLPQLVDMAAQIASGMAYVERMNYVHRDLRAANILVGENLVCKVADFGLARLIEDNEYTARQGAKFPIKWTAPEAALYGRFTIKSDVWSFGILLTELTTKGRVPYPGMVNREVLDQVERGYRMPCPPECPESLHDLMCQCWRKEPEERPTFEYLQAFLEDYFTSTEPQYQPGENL
Summary of the method: as §2

LYN A = target: T3, LYN A (Homo sapiens, UniProt P07948); assay: In vitro kinase assay (Z′-LYTE); type: biochemical; conditions: read-out: percent inhibition of the kinase compared to the control
T3 construct: purchased Invitrogen
T3 sequence (P07948 whole entry): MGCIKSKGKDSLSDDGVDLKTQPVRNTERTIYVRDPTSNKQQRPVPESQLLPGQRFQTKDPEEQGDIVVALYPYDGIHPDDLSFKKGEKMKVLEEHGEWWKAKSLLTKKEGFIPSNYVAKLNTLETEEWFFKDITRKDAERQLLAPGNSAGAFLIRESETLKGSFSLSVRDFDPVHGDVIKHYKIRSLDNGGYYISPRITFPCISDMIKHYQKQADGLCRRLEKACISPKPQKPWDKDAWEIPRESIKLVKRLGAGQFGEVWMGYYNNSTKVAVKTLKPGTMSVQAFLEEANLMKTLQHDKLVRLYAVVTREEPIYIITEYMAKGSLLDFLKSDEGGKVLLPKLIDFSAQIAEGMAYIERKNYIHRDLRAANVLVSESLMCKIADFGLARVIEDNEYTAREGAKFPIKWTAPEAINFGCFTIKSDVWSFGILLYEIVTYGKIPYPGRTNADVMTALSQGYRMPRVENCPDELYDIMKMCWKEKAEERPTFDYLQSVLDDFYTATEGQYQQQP
Summary of the method: as §2

ABL E255K = target: T4, ABL E255K (Homo sapiens, UniProt P00519, E255K); assay: In vitro kinase assay (Z′-LYTE); type: biochemical; conditions: read-out: percent inhibition of the kinase compared to the control
T4 construct: purchased Invitrogen
Summary of the method: as §2

PDGFRA (PDGFR alpha) = target: T5, PDGFRA (PDGFR alpha) (Homo sapiens, UniProt P16234); assay: In vitro kinase assay (Z′-LYTE); type: biochemical; conditions: read-out: % of inhibition of the kinase compared to the control
T5 construct: purchased Invitrogen
Summary of the method: as §2

EGFR (ErbB1) = target: T6, EGFR (ErbB1) (Homo sapiens, UniProt P00533); assay: In vitro kinase assay (Z′-LYTE); type: biochemical; conditions: read-out: % of inhibition of the kinase compared to the control
T6 construct: purchased Invitrogen
T6 sequence (P00533 25-1210): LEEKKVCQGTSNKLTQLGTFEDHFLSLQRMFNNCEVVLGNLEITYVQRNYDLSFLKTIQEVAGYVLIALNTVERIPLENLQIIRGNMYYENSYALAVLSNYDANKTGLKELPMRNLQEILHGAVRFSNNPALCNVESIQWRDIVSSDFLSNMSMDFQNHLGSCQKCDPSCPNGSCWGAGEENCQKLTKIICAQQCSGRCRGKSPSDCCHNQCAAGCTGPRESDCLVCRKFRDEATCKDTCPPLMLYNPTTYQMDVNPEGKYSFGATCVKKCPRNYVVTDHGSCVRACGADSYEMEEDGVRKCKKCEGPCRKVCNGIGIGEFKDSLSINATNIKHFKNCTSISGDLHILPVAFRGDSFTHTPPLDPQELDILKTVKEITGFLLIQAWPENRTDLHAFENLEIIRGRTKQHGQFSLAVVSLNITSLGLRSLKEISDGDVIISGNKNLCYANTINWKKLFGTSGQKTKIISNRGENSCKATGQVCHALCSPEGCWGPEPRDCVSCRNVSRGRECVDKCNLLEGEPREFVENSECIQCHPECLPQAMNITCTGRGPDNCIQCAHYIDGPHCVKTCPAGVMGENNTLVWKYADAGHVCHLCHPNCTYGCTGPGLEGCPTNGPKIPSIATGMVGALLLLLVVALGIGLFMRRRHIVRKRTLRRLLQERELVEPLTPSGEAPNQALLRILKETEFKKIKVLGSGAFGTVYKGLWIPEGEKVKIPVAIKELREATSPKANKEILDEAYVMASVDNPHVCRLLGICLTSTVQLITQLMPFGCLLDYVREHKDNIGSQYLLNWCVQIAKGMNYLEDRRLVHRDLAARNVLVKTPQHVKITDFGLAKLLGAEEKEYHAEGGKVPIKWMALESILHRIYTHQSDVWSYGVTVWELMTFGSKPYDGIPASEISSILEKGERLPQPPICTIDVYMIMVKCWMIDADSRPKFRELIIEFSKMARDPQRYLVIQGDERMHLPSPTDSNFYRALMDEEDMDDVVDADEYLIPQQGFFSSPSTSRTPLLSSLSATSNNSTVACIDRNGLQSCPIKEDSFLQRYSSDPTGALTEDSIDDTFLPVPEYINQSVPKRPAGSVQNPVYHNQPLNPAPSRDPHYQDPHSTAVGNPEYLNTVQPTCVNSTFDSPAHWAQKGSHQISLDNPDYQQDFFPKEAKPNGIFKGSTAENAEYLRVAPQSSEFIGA
Summary of the method: as §2

VEGFR1 = target: T7, VEGFR1 (Homo sapiens, UniProt P17948); assay: In vitro kinase assay (Z′-LYTE); type: biochemical; conditions: read-out: % of inhibition of the kinase compared to the control
T7 construct: purchased Invitrogen
Summary of the method: as §2

ABL T315I = target: T8, ABL T315I (Homo sapiens, UniProt P00519, T315I); assay: In vitro kinase assay (Z′-LYTE); type: biochemical; conditions: read-out: % of inhibition of the kinase compared to the control
T8 construct: purchased Invitrogen
Summary of the method: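 Inhibition measured at a single dose, 100 nM, or 10 μM for ABL T315I. Z′-LYTE format with ATP at apparent Km; emission ratio of donor to acceptor quantifies phosphorylation.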

ABL2 = target: T9, ABL2 (Homo sapiens, UniProt P42684); assay: In vitro kinase assay (Z′-LYTE); type: biochemical; conditions: read-out: percent inhibition of the kinase compared to the control
T9 construct: purchased Invitrogen
T9 sequence (P42684 whole entry): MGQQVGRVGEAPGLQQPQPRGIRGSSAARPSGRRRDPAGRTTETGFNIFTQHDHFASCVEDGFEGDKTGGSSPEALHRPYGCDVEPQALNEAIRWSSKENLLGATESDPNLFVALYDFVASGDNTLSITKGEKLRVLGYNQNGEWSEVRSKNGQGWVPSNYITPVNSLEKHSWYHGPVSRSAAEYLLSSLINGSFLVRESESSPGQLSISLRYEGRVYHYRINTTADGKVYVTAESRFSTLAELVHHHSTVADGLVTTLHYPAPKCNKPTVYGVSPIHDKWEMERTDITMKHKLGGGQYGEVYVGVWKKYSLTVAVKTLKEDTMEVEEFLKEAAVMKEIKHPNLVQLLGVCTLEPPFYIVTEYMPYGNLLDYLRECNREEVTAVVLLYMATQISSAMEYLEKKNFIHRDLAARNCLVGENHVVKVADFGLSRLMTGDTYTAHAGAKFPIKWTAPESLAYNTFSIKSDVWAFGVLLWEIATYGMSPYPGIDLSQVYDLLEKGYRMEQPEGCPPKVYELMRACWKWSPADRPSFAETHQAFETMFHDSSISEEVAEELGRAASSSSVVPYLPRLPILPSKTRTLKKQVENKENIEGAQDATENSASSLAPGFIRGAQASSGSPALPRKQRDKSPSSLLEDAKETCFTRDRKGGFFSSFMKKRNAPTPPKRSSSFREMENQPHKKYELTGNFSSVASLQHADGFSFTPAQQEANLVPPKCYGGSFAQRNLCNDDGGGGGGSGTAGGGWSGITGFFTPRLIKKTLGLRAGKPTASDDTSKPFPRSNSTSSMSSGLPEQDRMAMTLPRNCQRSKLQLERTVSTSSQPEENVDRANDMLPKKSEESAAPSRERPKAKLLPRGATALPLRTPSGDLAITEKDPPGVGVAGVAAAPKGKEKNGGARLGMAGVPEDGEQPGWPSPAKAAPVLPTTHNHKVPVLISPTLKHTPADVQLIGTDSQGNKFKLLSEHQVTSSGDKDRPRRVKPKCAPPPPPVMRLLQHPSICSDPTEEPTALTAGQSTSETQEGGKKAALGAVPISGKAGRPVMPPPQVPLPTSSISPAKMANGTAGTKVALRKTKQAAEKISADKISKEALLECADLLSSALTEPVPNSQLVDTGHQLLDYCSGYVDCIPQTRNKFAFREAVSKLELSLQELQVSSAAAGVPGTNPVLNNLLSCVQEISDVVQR
Summary of the method: as §2

EPHA4 = target: T10, EPHA4 (Homo sapiens, UniProt P54764); assay: In vitro kinase assay (Z′-LYTE); type: biochemical; conditions: read-out: percent inhibition of the kinase compared to the control
T10 construct: purchased Invitrogen
T10 sequence (P54764 20-986): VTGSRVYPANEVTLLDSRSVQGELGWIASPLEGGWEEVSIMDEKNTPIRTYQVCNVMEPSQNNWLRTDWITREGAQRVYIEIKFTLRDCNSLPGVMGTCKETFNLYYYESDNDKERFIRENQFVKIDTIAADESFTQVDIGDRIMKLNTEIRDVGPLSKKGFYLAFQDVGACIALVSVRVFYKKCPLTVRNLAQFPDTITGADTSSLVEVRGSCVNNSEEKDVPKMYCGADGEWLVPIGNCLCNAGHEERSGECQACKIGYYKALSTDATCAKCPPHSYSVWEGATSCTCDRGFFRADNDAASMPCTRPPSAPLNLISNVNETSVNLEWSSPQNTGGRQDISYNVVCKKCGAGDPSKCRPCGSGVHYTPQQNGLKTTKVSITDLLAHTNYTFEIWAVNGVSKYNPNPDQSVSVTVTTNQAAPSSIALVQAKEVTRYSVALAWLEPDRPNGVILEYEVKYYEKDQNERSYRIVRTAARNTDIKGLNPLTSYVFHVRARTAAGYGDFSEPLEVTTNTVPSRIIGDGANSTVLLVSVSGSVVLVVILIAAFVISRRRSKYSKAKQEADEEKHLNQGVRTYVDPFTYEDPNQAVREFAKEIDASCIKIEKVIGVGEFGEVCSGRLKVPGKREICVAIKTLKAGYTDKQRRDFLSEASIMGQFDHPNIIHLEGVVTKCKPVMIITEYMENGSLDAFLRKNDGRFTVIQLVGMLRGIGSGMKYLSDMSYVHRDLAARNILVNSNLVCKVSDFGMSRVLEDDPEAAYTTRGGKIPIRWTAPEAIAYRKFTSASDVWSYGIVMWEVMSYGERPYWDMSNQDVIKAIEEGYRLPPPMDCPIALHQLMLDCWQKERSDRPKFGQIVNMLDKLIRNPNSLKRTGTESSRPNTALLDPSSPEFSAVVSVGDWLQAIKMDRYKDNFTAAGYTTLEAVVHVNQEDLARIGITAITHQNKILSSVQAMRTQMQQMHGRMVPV
Summary of the method: as §2

SMILES: COC(=O)c1cc2cc(NCc3cc(NC(=O)c4ccc(CN5CCN(C)CC5)c(C(F)(F)F)c4)ccc3C)cnc2[nH]1 [OR0512]
- EC50 (BaF3 WT): ≤ 100 nM
- EC50 (H1975): 100 to 1000 nM
- EC50 (A549): ≤ 100 nM
- EC50 (HUVEC): ≤ 100 nM
- EC50 (HuCCT1): 100 to 1000 nM
- EC50 (BxPC-3): ≤ 100 nM
- EC50 (HeLa): 100 to 1000 nM
- EC50 (HepG2): ≤ 100 nM
- EC50 (HuH6 Clone 5): ≥ 1000 nM
- EC50 (MDA-MB-231): ≤ 100 nM
- EC50 (HuH7): ≤ 100 nM
- EC50 (Caki-2): ≤ 100 nM
- EC50 (BaF3 T315I): ≤ 100 nM
- EC50 (BaF3 G250E): ≤ 100 nM
- EC50 (BaF3 G250A): ≤ 100 nM
- EC50 (HRMEC): ≤ 100 nM
- EC50 (HT29): 100 to 1000 nM
- EC50 (BaF3 E255K + M351T): ≤ 100 nM
- EC50 (PC-3): 100 to 1000 nM
- inhibition at 0.1 µM (CSK): > 50%
- inhibition at 0.1 µM (SRC): ≥ 50%
- inhibition at 0.1 µM (LYN A): > 50%
- inhibition at 0.1 µM (ABL E255K): > 50%
- inhibition at 0.1 µM (PDGFRA (PDGFR alpha)): ≥ 50%
- inhibition at 0.1 µM (EGFR (ErbB1)): ≥ 50%
- inhibition at 0.1 µM (VEGFR1): < 50%
- inhibition at 10 µM (ABL T315I): ≥ 50%
- inhibition at 0.1 µM (ABL2): > 50%
- inhibition at 0.1 µM (EPHA4): > 50%
